# pIC50, pKd: −log10 of the molar value. Calls of active or inactive are those of the source. No cut-off for these calls is given here.
# What was measured:
# cells = settings: Homo sapiens, A2780AD, 48 h
# HeLa [1] = assay: cells; settings: Homo sapiens, 48 h
# HeLa [2] = assay: cells; settings: Homo sapiens, 48 h; remark: listed apart in the source
# A549 [3] = assay: cells; settings: Homo sapiens, A549, 48 h
# A2780 [4] = assay: cells; settings: Homo sapiens, A2780, 48 h
# Tubulin (Homo sapiens) [5] = target: T1, Tubulin (Homo sapiens) (UniProt P68371+Q9H4B7+P0DPH7+P68366+Q13509+Q71U36+P04350+Q3ZCM7+P07437+P68363+Q9BQE3+Q6PEY2+Q13885+Q9BVA1+Q9BUF5)
# NCI-H460 [6] = assay: Antitumor activity against human NCI-H460 cells xenografted in athymic nu/nu mouse assessed as increase in survival time at 0.75 mg/kg, iv administered once a week for 2 weeks; type: functional, organism-based
# NCI-H460 [7] = assay: Antitumor activity against human NCI-H460 cells xenografted in athymic nu/nu mouse assessed as median tumor volume at 1.7 mg/kg, iv measured on day 7 by digital caliper based analysis; type: functional; settings: time 7 day
# Tubulin (Homo sapiens) [8] = target: T1, Tubulin (Homo sapiens); assay: Disruption of microtubule network in human A549 cells assessed as appearance of aberrant chromosome distribution incubated for 24 hrs by immunofluorescence staining based epifluorescence microscopic analysis; type: cell-based
# NCI-H460 [9] = assay: Antitumor activity against human NCI-H460 cells xenografted in athymic nu/nu mouse assessed as mean survival time at 2.5 mg/kg, iv administered once a week for 2 weeks; type: functional
# [10] = Toxicity in athymic nu/nu mouse xenografted with human NCI-H460 cells assessed as clinical signs of systemic toxicity at 2.5 mg/kg, iv administered once a week for 2 weeks; type: organism-based; settings: in vivo, 336 h
# NCI-H460 [11] = assay: Antitumor activity against human NCI-H460 cells xenografted in athymic nu/nu mouse assessed as mean survival time at 0.75 mg/kg, iv administered once a week for 2 weeks; type: functional
# [12] = Toxicity in athymic nu/nu mouse xenografted with human NCI-H460 cells assessed as reduction in body weight at 2.5 mg/kg, iv measured on day 2; type: organism-based; parameters: scale not given: the % may be the effect or the level left; settings: in vivo, 48 h, time 2 day
# NCI-H460 [13] = assay: Antitumor activity against human NCI-H460 cells xenografted in iv dosed athymic nu/nu mouse assessed as reduction in tumor volume administered once a week for 2 weeks and measured 2 to 3 times per week by digital caliper based analysis; type: functional, organism-based; settings: dose 0.25-2.5 mg/kg
# NCI-H460 [14] = assay: Antitumor activity against human NCI-H460 cells xenografted in athymic nu/nu mouse assessed as mean survival time at 1.7 mg/kg, iv administered once a week for 2 weeks; type: functional
# NCI-H460 [15] = assay: Antitumor activity against human NCI-H460 cells xenografted in athymic nu/nu mouse assessed as increase in apoptosis by measuring number of apoptotic nuclei in tumor at 2.5 mg/kg, iv administered once a week for 2 weeks and measured 24 hrs post last dose by Hoechst 33258 staining based fluorescence microscopic analysis (reference value: 1 +/- 0.1); type: functional; settings: time 15 day
# NCI-H460 [16] = assay: Antitumor activity against human NCI-H460 cells xenografted in athymic nu/nu mouse assessed as median tumor volume at 2.5 mg/kg, iv measured on day 7 by digital caliper based analysis; type: functional; settings: time 7 day
# Tubulin (Homo sapiens) [17] = target: T1, Tubulin (Homo sapiens); assay: Disruption of microtubule network in human A549 cells assessed as appearance of cellular phenotype with hypercondensed chromatin incubated for 24 hrs by immunofluorescence staining based epifluorescence microscopic analysis; type: cell-based
# [18] = Toxicity in athymic nu/nu mouse xenografted with human NCI-H460 cells assessed as reduction in body weight at 2.5 mg/kg, iv measured on day 7; type: organism-based; parameters: scale not given: the % may be the effect or the level left; settings: in vivo, 168 h, time 7 day
# Tubulin (Homo sapiens) [19] = target: T1, Tubulin (Homo sapiens); assay: Disruption of microtubule network in human A549 cells assessed as induction of cellular landscape at 1 nM incubated for 24 hrs by immunofluorescence staining based epifluorescence microscopic analysis; type: cell-based
# NCI-H460 [20] = assay: Antitumor activity against human NCI-H460 cells xenografted in athymic nu/nu mouse assessed as median tumor volume at 0.75 mg/kg, iv measured on day 7 by digital caliper based analysis; type: functional; settings: time 7 day
# NCI-H460 [21] = assay: Antitumor activity against human NCI-H460 cells xenografted in athymic nu/nu mouse assessed as reduction in tumor size at 1.1 to 2.5 mg/kg, iv administered once a week for 2 weeks by digital caliper based analysis; type: functional, organism-based; settings: dose 1.1-2.5 mg/kg
# Tubulin (Homo sapiens) [22] = target: T1, Tubulin (Homo sapiens); assay: Disruption of microtubule network in human A549 cells assessed as disorganization of tubulin cytoskeleton during interphase incubated for 24 hrs by immunofluorescence staining based epifluorescence microscopic analysis; type: cell-based
# Tubulin (Homo sapiens) [23] = target: T1, Tubulin (Homo sapiens); assay: Disruption of microtubule network in human A549 cells assessed as reduction in number and length of microtubules incubated for 24 hrs by immunofluorescence staining based epifluorescence microscopic analysis; type: cell-based
# [24] = Toxicity in athymic nu/nu mouse xenografted with human NCI-H460 cells assessed as reduction in body weight at 2.5 mg/kg, iv measured on day 5; type: organism-based; parameters: scale not given: the % may be the effect or the level left; settings: in vivo, 120 h, time 5 day
# NCI-H460 [25] = assay: Antitumor activity against human NCI-H460 cells xenografted in athymic nu/nu mouse assessed as increase in survival time at 1.1 to 2.5 mg/kg, iv administered once a week for 2 weeks; type: functional, organism-based; settings: dose 1.1-2.5 mg/kg
# Tubulin (Bos taurus) [26] = target: T2, Tubulin (Bos taurus) (UniProt Q6B856+Q862L2+Q862F3); assay: Displacement of 2-methoxy-5-(2,3,4-trimethoxyphenyl)-2,4,6-cycloheptatriene-1-one from calf brain tubulin colchicine site
# [27] = Inhibition of human recombinant alpha1beta3 tubulin expressed in Sf9 insect cells at 5 to 27.5 uM incubated for 70 mins by […]; settings: dose 5-27.5 µM
# Tubulin [28] = target: Tubulin (Bos taurus, UniProt Q6B856+Q862L2+Q862F3); assay: Displacement of fluorescent probe (R)-(+)-ethyl 5-amino2-methyl-1,2-dihydro-3-phenylpyrido[3,4-b]pyrazin-7-ylcarbamate from calf brain tubulin colchicine binding site assessed as dissociation constant at 0.05 to 70 uM incubated for 30 mins by fluorescence based assay
# NCI-H460 [29] = assay: Antitumor activity against human NCI-H460 cells xenografted in athymic nu/nu mouse assessed as mean survival time at 1.1 mg/kg, iv administered once a week for 2 weeks; type: functional
# Tubulin (Homo sapiens) [30] = target: T1, Tubulin (Homo sapiens); assay: Disruption of microtubule network in human A549 cells assessed as reduction in mitotic spindle formation incubated for 24 hrs by immunofluorescence staining based epifluorescence microscopic analysis; type: cell-based
# NCI-H460 [31] = assay: Antitumor activity against human NCI-H460 cells xenografted in athymic nu/nu mouse assessed as reduction in tumor size at 0.75 mg/kg, iv administered once a week for 2 weeks by digital caliper based analysis; type: functional, organism-based
# Tubulin (Bos taurus) [32] = target: T2, Tubulin (Bos taurus); assay: Inhibition of calf brain tubulin assembly measured upto 100 mins; settings: dose 0.625-5 µM
# NCI-H460 [33] = assay: Antitumor activity against human NCI-H460 cells xenografted in athymic nu/nu mouse assessed as median tumor volume at 1.1 mg/kg, iv measured on day 7 by digital caliper based analysis; type: functional; settings: time 7 day
# Tubulin [34] = assay: Displacement of fluorescent probe (R)-(+)-ethyl 5-amino2-methyl-1,2-dihydro-3-phenylpyrido[3,4-b]pyrazin-7-ylcarbamate from tubulin colchicine binding site (unknown origin) assessed as dissociation constant; type: protein-complex assay, Homo sapiens
# [35] = Antiproliferative activity against human A2780AD cells overexpressing P-gp assessed as inhibition of cell growth; type: functional, cell-based
# A2780 [36] = assay: Antiproliferative activity against human A2780 cells assessed as inhibition of cell growth; type: functional, cell-based
# HeLa [37] = assay: cells; settings: Homo sapiens
# Description: Antiproliferative activity against human HeLa cells assessed as inhibition of cell growth
# HeLa [38] = assay: cells; settings: Homo sapiens; remark: listed apart in the source
# Description: Antiproliferative activity against human HeLa cells expressing tubulin betaIII assessed as inhibition of cell growth
# A549 [39] = assay: cells; settings: Homo sapiens
# Description: Antiproliferative activity against human A549 cells assessed as inhibition of cell growth
# Tubulin (Bos taurus) [40] = target: T2, Tubulin (Bos taurus); assay: Binding affinity to calf brain tubulin colchicine binding site assessed as Koff at 3 uM incubated for 30 mins by fluorescence based photon-counting instrument
compound,measurement,setting,value
COc1cc([C@@H]2c3cc4c(cc3[C@H](O)[C@H]3COC(=O)[C@H]23)OCO4)cc(OC)c1OC [PODOFILOX],pIC50,cells,7.70
same,pIC50,HeLa [1],7.81
same,pIC50,HeLa [2],7.74
same,pIC50,A549 [3],7.80
COc1cc2cc(c1Cl)N(C)C(=O)C[C@H](OC(=O)[C@H](C)N(C)C(C)=O)[C@]1(C)O[C@H]1[C@H](C)[C@@H]1C[C@@](O)(NC(=O)O1)[C@H](OC)/C=C/C=C(\C)C2 [MAYTANSINE],pIC50,cells,7.72
same,pIC50,A2780 [4],9.13
same,pIC50,HeLa [1],9.48
same,pIC50,HeLa [2],8.96
same,pIC50,A549 [3],9.23
COc1ccc(/C=C\c2cc(OC)c(OC)c(OC)c2)cc1O,Ka,Tubulin (Homo sapiens) [5],3 10^8/M
CCC[C@@H](NC(=O)[C@]1(C)CSC(/C(C)=N/O)=N1)c1cc(OCC2CC2)cc(=O)o1,pIC50,cells,8.49
same,pIC50,A2780 [4],8.85
same,Activity,NCI-H460 [6],inactive
same,Activity,NCI-H460 [7],580 mm3
same,Activity,Tubulin (Homo sapiens) [8],Active
same,MST,NCI-H460 [9],21 days
same,Activity,[10],Non-Toxic
same,MST,NCI-H460 [11],10.5 days
same,Activity,[12],11.2%
same,Activity,NCI-H460 [13],Dose-Dependent Effect
same,MST,NCI-H460 [14],20 days
same,Activity,NCI-H460 [15],10
same,Activity,NCI-H460 [16],260.4 mm3
same,Activity,Tubulin (Homo sapiens) [17],Active
same,Activity,[18],-2.9%
same,Activity,Tubulin (Homo sapiens) [19],Active
same,Activity,NCI-H460 [20],1395 mm3
same,Activity,NCI-H460 [21],Active
same,Activity,Tubulin (Homo sapiens) [22],Active
same,Activity,Tubulin (Homo sapiens) [23],Active
same,Activity,[24],-4.5%
same,Activity,NCI-H460 [25],Active
same,pIC50,HeLa [1],8.80
same,Activity,Tubulin (Bos taurus) [26],100%
same,inhibition,[27],Active
same,Kd,Tubulin [28],20 nM
same,MST,NCI-H460 [29],16 days
same,pIC50,HeLa [2],8.89
same,Activity,Tubulin (Homo sapiens) [30],Active
same,Activity,NCI-H460 [31],inactive
same,inhibition,Tubulin (Bos taurus) [32],Dose-Dependent Effect
same,Activity,NCI-H460 [33],947.3 mm3
same,pIC50,A549 [3],8.82
CC(=O)O[C@H]1C(=O)[C@@]2(C)[C@H]([C@H](OC(=O)c3ccccc3)[C@]3(O)C[C@H](OC(=O)[C@H](O)[C@@H](NC(=O)c4ccccc4)c4ccccc4)C(C)=C1C3(C)C)[C@]1(OC(C)=O)CO[C@@H]1C[C@@H]2O [PACLITAXEL],pIC50,cells,6.41
same,pIC50,HeLa [1],8.96
same,pIC50,HeLa [2],7.70
COCc1cc2cccc(NC(C)=C3C(=O)CC(c4ccccc4)CC3=O)c2o1 (stereo not given),pKd,Tubulin [34],8.52
same,pIC50,[35],7.41
same,pIC50,A2780 [36],7.64
COc1cc2c(c(OC)c1OC)-c1ccc(OC)c(=O)cc1[C@@H](NC(C)=O)CC2 [COLCHICINE],pIC50,HeLa [37],7.96
same,pIC50,HeLa [38],7.72
same,pIC50,A549 [39],7.31
same,pIC50,[35],6.27
CCC[C@@H](NC(=O)[C@]1(C)CSC(/C(C)=N/O)=N1)c1cc(OC)cc(=O)o1,pIC50,cells,7.27
same,pIC50,A2780 [4],7.66
same,pIC50,HeLa [1],7.72
same,Kd,Tubulin [28],960 nM
same,pIC50,HeLa [2],7.55
same,pIC50,A549 [3],7.64
CC[C@]1(O)C[C@@H]2CN(CCc3c([nH]c4ccccc34)[C@@](C(=O)OC)(c3cc4c(cc3OC)N(C)[C@H]3[C@@](O)(C(=O)OC)[C@H](OC(C)=O)[C@]5(CC)C=CCN6CC[C@]43[C@@H]65)C2)C1 [VINBLASTINE],pIC50,cells,7.15
same,pIC50,A2780 [4],8.82
same,pIC50,HeLa [1],9.27
same,pIC50,HeLa [2],8.36
same,pIC50,A549 [3],8.82
COc1ccc(-c2ccc(OC)c(=O)cc2)c(OC)c1OC,K,Tubulin (Bos taurus) [40],6 s⁻¹
